This is an account of results in ChEMBL document CHEMBL4765389, “Antimicrobial and anti-inflammatory activities of short dodecapeptides derived from duck cathelicidin: Plausible mechanism of bactericidal action and endotoxin neutralization” (Eur J Med Chem, 2020).

In data set [1] the test system is Candida albicans. As to the kind of experiment: Antifungal activity against Candida albicans KCTC 7121 assessed as reduction in fungal growth incubated for 24 hrs by CLSI based broth dilution method. Format: functional. To be noted: read-out: MIC100. Background: In broth dilution the organism is exposed to a series of concentrations in liquid medium.
The nature of data set [2]: Antibacterial activity against multidrug-resistant Pseudomonas aeruginosa CCARM 2109 assessed as reduction in bacterial growth incubated for 24 hrs by CLSI based broth dilution method. The format is functional. Particulars: read-out: MIC100.
The subject of data set [3] is Erythrocyte. As to the kind of experiment: Hemolytic activity in sheep RBC assessed as reduction in hemoglobin incubated for 1 hr. The format is ADME, cell-based, Ovis aries.
Data set [4] has as its system Cell membrane. Description: Induction of cell membrane permeability in Escherichia coli KCTC 1682 assessed as […] at 2 times MIC by ONPG dye based spectrophotometry. Format: subcellular.
Data set [5] concerns Cell membrane. As to the kind of experiment: Induction of cell membrane permeability in Escherichia coli KCTC 1682 assessed as cytoplasmic membrane […] fluorescent signals at 2 times MIC measured after 1 hr by propidium iodide dye based flow cytometry analysis (reference value: 9.8 %). The format is subcellular.
Data set [6] is described as follows: Therapeutic index, ratio of HC10 for sheep RBC to geometric mean MIC for yeast. The format is toxicity. Particulars: sheep red blood cells, read-out: TI.
Data set [7] has as its system Bacteria. As to the kind of experiment: Antibacterial activity against Gram positive bacteria assessed as reduction in bacterial growth incubated for 24 hrs by CLSI based broth dilution method. The format is functional. To be noted: read-out: MIC100.
The test system of data set [8] is Enterococcus faecium. Description: Antibacterial activity against vancomycin-resistant Enterococcus faecium ATCC 51559 assessed as reduction in bacterial growth incubated for 24 hrs by CLSI based broth dilution method. The format is functional. Particulars: read-out: MIC100.
Data set [9] deals with Cell membrane. Description: Induction of cell membrane permeability in Staphylococcus aureus KCTC 1621 assessed as cytoplasmic membrane depolarization at 2 times MIC by SYTOX dye based fluorescence assay. The format is subcellular.
The test system of data set [10] is NIH3T3. As to the kind of experiment: (§1) Cytotoxicity against mouse NIH/3T3 cells assessed as reduction in cell viability at 20 uM incubated for 24 hrs by MTT assay. Particulars: nih3t3, 24 h, 20 µM. The format is cell-based. (In general: Tetrazolium dyes change colour on reduction, which living cells bring about.)
Data set [11] can be described thus: Cytotoxicity against mouse RAW264.7 cells assessed as reduction in cell viability at 20 uM incubated for 24 hrs by MTT assay. Format: cell-based. To be noted: read-out: INH.
In data set [12] the test system is Bacteria. Description: Antibacterial activity against Gram negative bacteria assessed as reduction in bacterial growth incubated for 24 hrs by CLSI based broth dilution method. The format is functional. Particulars: read-out: MIC100.
A short description of data set [13]: Therapeutic index, ratio of HC10 for sheep RBC to geometric mean MIC for gram positive bacteria. The format is toxicity. Particulars: sheep red blood cells, read-out: TI.
Data set [14] has as its system Saccharomyces cerevisiae. As to the kind of experiment: Antifungal activity against yeast assessed as reduction in fungal growth incubated for 24 hrs by CLSI based broth dilution method. The format is functional. Particulars: read-out: MIC100.
Data set [15] deals with RAW264.7. Description: Cytotoxicity against mouse RAW264.7 cells assessed as reduction in cell viability at 1.25 to 80 uM incubated for 24 hrs by MTT assay. The format is cell-based. Particulars: raw264.7, 24 h, dose 1.25-80 µM.
For data set [16], the system named is Cell membrane. As to the kind of experiment: Induction of cell membrane permeability in Staphylococcus aureus KCTC 1621 assessed as cytoplasmic membrane depolarization at 2 times MIC by DiSC3-5 dye based spectrofluorometry. Format: subcellular.
A short description of data set [17]: Therapeutic index, ratio of HC10 for sheep RBC to geometric mean MIC for gram negative bacteria. The format is toxicity. Particulars: sheep red blood cells, read-out: TI.
The test system of data set [18] is Candida albicans. As to the kind of experiment: Antifungal activity against Candida albicans KCTC 7965 assessed as reduction in fungal growth incubated for 24 hrs by CLSI based broth dilution method. The format is functional. To be noted: read-out: MIC100.
Data set [19] deals with NIH3T3. As to the kind of experiment: Cytotoxicity against mouse NIH/3T3 cells assessed as reduction in cell viability at 1.25 to 80 uM incubated for 24 hrs by MTT assay. The format is cell-based. To be noted: nih3t3, 24 h, dose 1.25-80 µM.
The nature of data set [20]: Antibacterial activity against multidrug-resistant Pseudomonas aeruginosa CCARM 2095 assessed as reduction in bacterial growth incubated for 24 hrs by CLSI based broth dilution method. The format is functional. To be noted: read-out: MIC100.
Data set [21] deals with Pseudomonas aeruginosa. Description: Antibacterial activity against Pseudomonas aeruginosa KCTC 1637 assessed as reduction in bacterial growth incubated for 24 hrs by CLSI based broth dilution method. Format: functional. Particulars: read-out: MIC100.
The test system of data set [22] is Staphylococcus aureus. As to the kind of experiment: Antibacterial activity against Staphylococcus aureus KCTC 1621 assessed as reduction in bacterial growth incubated for 24 hrs by CLSI based broth dilution method. The format is functional. To be noted: read-out: MIC100.
Data set [23] has as its system Bacillus subtilis. As to the kind of experiment: Antibacterial activity against Bacillus subtilis KCTC 3068 assessed as reduction in bacterial growth incubated for 24 hrs by CLSI based broth dilution method. Format: functional. Particulars: read-out: MIC100.
Data set [24] has as its system Salmonella typhimurium. Description: Antibacterial activity against Salmonella typhimurium KCTC 1926 assessed as reduction in bacterial growth incubated for 24 hrs by CLSI based broth dilution method. The format is functional, Salmonella enterica subsp. enterica serovar Typhimurium. Particulars: Salmonella enterica, read-out: MIC100.
Data set [25] deals with Staphylococcus aureus. Description: Antibacterial activity against methicillin-resistant Staphylococcus aureus CCARM 3090 assessed as reduction in bacterial growth incubated for 24 hrs by CLSI based broth dilution method. Format: functional. To be noted: read-out: MIC100.
Data set [26] has as its system Erythrocyte. As to the kind of experiment: Hemolytic activity in sheep RBC assessed as reduction in hemoglobin at 256 uM incubated for 1 hr. The format is ADME, cell-based, Ovis aries.
In data set [27] the test system is Staphylococcus aureus. As to the kind of experiment: Antibacterial activity against methicillin-resistant Staphylococcus aureus CCARM 3095 assessed as reduction in bacterial growth incubated for 24 hrs by CLSI based broth dilution method. Particulars: read-out: MIC100. Format: functional.
Data set [28] in a line: Cytotoxicity against mouse RAW264.7 cells assessed as reduction in cell viability at 10 uM incubated for 24 hrs by MTT assay. Format: cell-based. To be noted: read-out: INH.
The test system of data set [29] is Escherichia coli. As to the kind of experiment: Antibacterial activity against Escherichia coli KCTC 1682 assessed as reduction in bacterial growth incubated for 24 hrs by CLSI based broth dilution method. The format is functional. Particulars: read-out: MIC100.
Data set [30] in a line: as §1. Format: cell-based, NIH3T3. Particulars: NIH/3T3 cells, read-out: INH.
Data set [31] in a line: Cytotoxicity against mouse NIH/3T3 cells assessed as reduction in cell viability at 10 uM incubated for 24 hrs by MTT assay. Format: cell-based, NIH3T3. To be noted: read-out: INH.
For data set [32], the system named is Staphylococcus aureus. Description: Antibacterial activity against methicillin-resistant Staphylococcus aureus CCARM 3089 assessed as reduction in bacterial growth incubated for 24 hrs by CLSI based broth dilution method. Particulars: read-out: MIC100. Format: functional.
A short description of data set [33]: Hemolytic activity in sheep RBC assessed as reduction in hemoglobin at 64 uM incubated for 1 hr. Format: ADME, cell-based, Ovis aries, Erythrocyte. Particulars: sheep red blood cells (erythrocytes), read-out: Activity.
In data set [34] the test system is Staphylococcus epidermidis. As to the kind of experiment: Antibacterial activity against Staphylococcus epidermidis KCTC 1917 assessed as reduction in bacterial growth incubated for 24 hrs by CLSI based broth dilution method. The format is functional. To be noted: read-out: MIC100.
The nature of data set [35]: Retention time of the compound by RP-HPLC method. The format is physicochemical.
Data set [36] deals with Lipopolysaccharide (LPS). Description: Inhibition of Escherichia coli O111:B4 LPS aggregation assessed as increase in FITC-LPS dissociation at 100 uM by spectrofluorometry.
The subject of data set [37] is RAW264.7. As to the kind of experiment: Antiinflammatory activity in mouse RAW264.7 cells assessed as suppression of LPS binding by measuring LPS-FITC aggregation at 10 uM pretreated with LPS for 1 hr followed by compound addition and measured after 30 mins by flowcytometry analysis (reference value: 67.93 %). To be noted: 0.5 h. Format: functional.
The test system of data set [38] is RAW264.7. Description: Antiinflammatory activity in mouse RAW264.7 cells assessed as neutralization of LPS binding by measuring LPS-FITC aggregation at 10 uM pretreated with LPS for 1 hr followed by compound addition and measured after 1 hr by flowcytometry analysis (reference value: 48.12 %). The format is functional.

Values after ≈ are worked out from the molar mass of the structure shown. Active and inactive are the calls of the source. No cut-off for these calls is given here. Bridge positions count the residues as written; N and C are the ends. Square brackets hold non-standard residues; d marks the D form. Peptide text beside a SMILES is read from it. * marks the point of attachment. X1 = CC[C@H](C)CCCCC(=O)*; Dab = NCC[C@H](N)C(=O)O

Consider `CC[C@H](C)[C@H](NC(=O)CN)C(=O)NCC(=O)N[C@@H](C)C(=O)N[C@H](C(=O)N[C@@H](CC(C)C)C(=O)N[C@@H](CCCCN)C(=O)N[C@H](C(=O)N[C@@H](CC(C)C)C(=O)N[C@H](C(=O)N[C@H](C(=O)NCC(=O)N[C@@H](CC(C)C)C(=O)N1CCC[C@H]1C(=O)N[C@@H](C)C(=O)N[C@@H](CC(C)C)C(=O)N[C@H](C(=O)N[C@@H](CO)C(=O)N[C@@H](Cc1c[nH]c2ccccc12)C(=O)N[C@H](C(=O)N[C@@H](CCCCN)C(=O)N[C@@H](CCCNC(=N)N)C(=O)N[C@@H](CCCCN)C(=O)N[C@@H](CCCNC(=N)N)C(=O)N[C@@H](CCC(N)=O)C(=O)N[C@@H](CCC(N)=O)C(N)=O)[C@@H](C)CC)[C@@H](C)CC)[C@@H](C)O)[C@@H](C)O)C(C)C)C(C)C` [MELITTIN], for which the MIC turned out to be 16 µM (≈ 45.5 µg/mL) in [1]; 32 µM (≈ 91.1 µg/mL) in data set [2]; 16 µM (≈ 45.5 µg/mL) in [7]; 16 µM (≈ 45.5 µg/mL) in data set [8]; 17.2 µM (≈ 49 µg/mL) in data set [12]; 16 µM (≈ 45.5 µg/mL) in data set [14]. Further, the results for the MIC in [18] and in [20] were 16 µM (≈ 45.5 µg/mL) and 32 µM (≈ 91.1 µg/mL), respectively. In data set [3], the HC10 was found to be 1 µM. Further, the result in data set [4], in [9] and in data set [16] was Active. The Activity is 71.9% in data set [5], “Toxic” in data set [10], “Toxic” in data set [15] and “Toxic” in data set [19]. Further, the selectivity ratio in data set [6], in [13] and in data set [17] was 0.1 each time. Besides, the cytotoxicity at 24 h, 20 µM in data set [11] was below 10%.
As to H-KRFWQLVPLAIKIYRAWKRR-OH, the MIC was 16 µM in data set [21]; 16 µM in data set [1]; 8 µM in [22]; 8 µM in data set [23]; 4 µM in data set [24]; 16 µM in data set [25]. Also, the MIC in data set [2] worked out at 16 µM; in [27], 8 µM; in data set [29] it was 8 µM; in [7], 11.4 µM; in [8], 16 µM; in data set [12], 12 µM. The MIC in [14] was 12 µM; in data set [18], 8 µM; in [32], 16 µM; in [20] it was 16 µM; in data set [34], 8 µM. The HC10 in data set [3] was 5.1 µM. Moreover, the Activity result in data set [26] is “Non-Toxic”. Besides, the cytotoxicity at 24 h, 10 µM in data set [28] and in data set [31] was 40% in each case. Moreover, the selectivity ratio in data set [6], in data set [13] and in [17] was 0.4 each time. For the same compound, the cytotoxicity at 24 h, 20 µM in [30] and in data set [11] was below 10% each time. The hemolysis at 1 h, 64 µM in data set [33] was determined as 40%. The same compound yielded a Retention_time in data set [35] of 26.8 min.
In the case of `CC[C@H](C)CCCCC(=O)N[C@@H](CCN)C(=O)N[C@H](C(=O)N[C@@H](CCN)C(=O)N[C@H]1CCNC(=O)[C@H]([C@@H](C)O)NC(=O)[C@H](CCN)NC(=O)[C@H](CCN)NC(=O)[C@H](CC(C)C)NC(=O)[C@@H](Cc2ccccc2)NC(=O)[C@H](CCN)NC1=O)[C@@H](C)O` (X1-[Dab]T[Dab][Dab][Dab][dF]L[Dab][Dab]T; lactam 4-C), in data set [36], the inhibition result was “inactive”. The values for the Activity in data set [37] and in [38] were 23.97% and 43.62%, respectively.
